Reference: patent US20200011856A1, “Method for Determining the Effectiveness of Treatment for the Prevention of Heartworm Disease” (priority 2017, published 2020)
Several values for one entry are separate records, joined by “and”; a condition that tells them apart may be missing. Equal entries are not always repeated.

What was measured:
Haemonchus contortus = Haemonchus contortus L3 infection of control and MPA-treated NSG mice, worm and egg recovery; assay type: in vivo
[1] = test system: Strongyloides stercoralis; assay: Strongyloides stercoralis L3 infection of NSG mice with or without MPA, treatment, counts of adult worms, L1 and L3; conditions: 6 weeks post-injection; for Adult S. stercoralis recovery counts (individual mice) / Adult S. stercoralis recovery counts, mean / L1 S. stercoralis recovery counts (individual mice) / L1 S. stercoralis recovery counts, mean / L3 S. stercoralis recovery counts (individual mice) / L3 S. stercoralis recovery counts, mean: 5000 L3 s.c.
Excerpt: NSG mice infected by subcutaneous injection with 5000 S. stercoralis L3 larvae, either with or without MPA. […] Adult worms, L1 larvae, or L3 larvae were counted in the mice at 6 weeks post-injection.

Dirofilaria immitis = assay: D. immitis L3 infection of NSG mice (FR3 Missouri strain or strain not stated), treatment, recovery and count of worms at necropsy; assay type: in vivo; conditions: for % Rec / Survival / % Rec (percent of the original 50 Di recovered) / Survival (number of Di recovered from the mouse): individual mouse; for % Rec (percent of the original 50 Di recovered) / Survival (number of Di recovered from the mouse): 1 mg/kg
[2] = test system: Dirofilaria immitis (Merial worms, UC strain); assay: D. immitis L3 infection of NSG mice with Merial worms / UC strain, treatment, recovery and count of worms; assay type: in vivo
[3] = NSG mice, 50 Di L3, 1x (1 mg/kg) at Day 30, recovery Days 41 to 43
[4] = NSG mice, 50 Di L3, 2x (1 mg/kg) at Days 1 and 30, recovery Days 41 to 43
[5] = NSG mice, 50 Di L3, 3x (1 mg/kg) at Days 1, 15, and 30, recovery Days 41 to 43
[6] = NSG mice, 50 Di L3 Day 0, 1 mg/kg EMO or 8800 on Days 30 and 60, recovery Days 83 and 84
[7] = NSG mice, 50 Di L3 Day 0, 1 mg/kg on Day 30, recovery Days 41 to 43
[8] = Table 9, NSG mice, 50 Di L3, 1 mg/kg on Days 1, 15, and 30, recovery Days 41 to 43
[9] = Table 9, group mean, NSG mice, 50 Di L3, 1 mg/kg on Days 1, 15, and 30, recovery Days 41 to 43
[10] = Table 11, NSG mice, 50 Di L3, 5 mg/kg on Days 1, 15, and 30, recovery Days 41 to 42
[11] = Table 11, group mean, NSG mice, 50 Di L3, 5 mg/kg on Days 1, 15, and 30, recovery Days 41 to 42
[12] = group mean, NSG mice, 50 Di L3, 1x (1 mg/kg) at Day 30, recovery Days 41 to 43
[13] = group mean, NSG mice, 50 Di L3 Day 0, 1 mg/kg EMO or 8800 on Days 30 and 60, recovery Days 83 and 84
[14] = group mean, NSG mice, 50 Di L3 Day 0, 1 mg/kg on Day 30, recovery Days 41 to 43
[15] = EMO 1 mg/kg Days 1, 15, 30, 50 Di L3 (UC Strain) per NSG mouse, recovery Days 41 to 43, group mean
[16] = EMO 1 mg/kg Days 1, 15, 30, 50 Di L3 (UC Strain) per NSG mouse, recovery Days 41 to 43, individual mice
[17] = group mean, NSG mice, 50 Di L3 Merial worms, 1 mg/kg on Days 1, 15, and 30, recovery Days 41 to 43
[18] = group mean, NSG mice, 50 Di L3 Merial worms, high dose 5 mg/kg on Days 1, 15, and 30, recovery Days 41 to 43
[19] = group mean, NSG mice, 50 Di L3 UC strain, High Dose 5 mg/kg on Days 1, 15, and 30, recovery Days 41 and 42
[20] = individual mouse, NSG mice, 50 Di L3 Merial worms, 1 mg/kg on Days 1, 15, and 30, recovery Days 41 to 43, 1 mg/kg
[21] = individual mouse, NSG mice, 50 Di L3 Merial worms, high dose 5 mg/kg on Days 1, 15, and 30, recovery Days 41 to 43, 5 mg/kg
[22] = individual mouse, NSG mice, 50 Di L3 UC strain, High Dose 5 mg/kg on Days 1, 15, and 30, recovery Days 41 and 42, 5 mg/kg
[23] = EMO Control: 2.5 mg/kg EMO days 1, 15, 30, without MPA
[24] = EMO/MPA: 2.5 mg/kg EMO days 1, 15, 30, with MPA (hyperinfection)

SMILES: CC(=O)OCC(=O)[C@@]1(O)CC[C@H]2[C@@H]3C[C@H](C)C4=CC(=O)C=C[C@]4(C)[C@H]3[C@@H](O)C[C@@]21C [MPA, methylprednisolone acetate]
- Hc Recovery, Average (Haemonchus contortus; MPA-treated NSG mice, 500 Hc L3 oral gavage, 14 Days PI): 10.5
- Hc Recovery, Average (Haemonchus contortus; MPA-treated NSG mice, 500 Hc L3 oral gavage, 21 Days PI): 2
- Hc Recovery, Average (Haemonchus contortus; MPA-treated NSG mice, 500 Hc L3 oral gavage, 28 Days PI): 0
- Hc Recovery, Average (Haemonchus contortus; MPA-treated NSG mice, 500 Hc L3 oral gavage, 56 Days PI): 0
- Hc Recovery, Average (Haemonchus contortus; MPA-treated NSG mice, 500 Hc L3 oral gavage, 7 days PI): 19.5
- Hc Recovery (individual mice) (Haemonchus contortus; MPA-treated NSG mice, 1000 Hc L3 oral gavage, 14 Days PI): 15 and 1
- Hc Recovery (individual mice) (Haemonchus contortus; MPA-treated NSG mice, 1000 Hc L3 oral gavage, 21 Days PI): 15 and 20
- Hc Recovery (individual mice) (Haemonchus contortus; MPA-treated NSG mice, 1000 Hc L3 oral gavage, 28 Days PI): 0 and 1
- Hc Recovery (individual mice) (Haemonchus contortus; MPA-treated NSG mice, 1000 Hc L3 oral gavage, 56 Days PI): 0
- Hc Recovery, Average (Haemonchus contortus; MPA-treated NSG mice, 1000 Hc L3 oral gavage, 7 days PI): 36
- # Eggs Found (Haemonchus contortus; in vivo): 2
- Hc Recovery (individual mice) (Haemonchus contortus; in vivo, po): 19 and 2 and 0 and 36 and 3 and 24 and 48
- Adult S. stercoralis recovery counts (individual mice) ([1]; MPA only (hyperinfection)): 888 and 235 and 34 and 437 and 581 and 447
- Adult S. stercoralis recovery counts, mean ([1]; MPA only (hyperinfection)): 437
- L1 S. stercoralis recovery counts (individual mice) ([1]; MPA only (hyperinfection)): 86 and 24 and 8456 and 9181 and 3464 and 670
- L1 S. stercoralis recovery counts, mean ([1]; MPA only (hyperinfection)): 3647
- L3 S. stercoralis recovery counts (individual mice) ([1]; MPA only (hyperinfection)): 275 and 31 and 2760 and 1766 and 632 and 1015
- L3 S. stercoralis recovery counts, mean ([1]; MPA only (hyperinfection)): 1080

SMILES: CC(C)C[C@H]1C(=O)O[C@H](Cc2ccc(N3CCOCC3)cc2)C(=O)N(C)[C@@H](CC(C)C)C(=O)O[C@H](C)C(=O)N(C)[C@@H](CC(C)C)C(=O)O[C@H](Cc2ccc(N3CCOCC3)cc2)C(=O)N(C)[C@@H](CC(C)C)C(=O)O[C@H](C)C(=O)N1C [EMO, emodepside]
- HW parasite load (normalized percent larva recovery, FIG. 2) (Dirofilaria immitis; NSG mice dosed orally with 1 mg/kg at Days 1, 15, and 30 post-infection, day 42/6 weeks): significantly reduced HW parasite load
- % Red (Dirofilaria immitis; [3]): 0%
- % Red (Dirofilaria immitis; [4]): 15%
- % Red (Dirofilaria immitis; [5]): 50%
- % Red (Dirofilaria immitis; [6]): 86%
- % Red (percent reduction in percent of Di recovered compared to control) (Dirofilaria immitis; [7]): 30%
- % Red (Dirofilaria immitis; [8]): 33%
- Mean % Rec (Dirofilaria immitis; [9]): 22%
- Mean Survival (Dirofilaria immitis; [9]): 11
- % Rec (Dirofilaria immitis; [8]): 26% and 24% (2×) and 16% (2×) and 20% and 22%
- Survival (Dirofilaria immitis; [8]): 13 and 12 (2×) and 8 (2×) and 10 and 11
- % Red (Dirofilaria immitis; [10]): 0%
- Mean % Rec (Dirofilaria immitis; [11]): 26%
- Mean Survival (Dirofilaria immitis; [11]): 13
- % Rec (Dirofilaria immitis; [10]): 22% (2×) and 28% and 36% and 34% and 14%
- Survival (Dirofilaria immitis; [10]): 11 (2×) and 14 and 18 and 17 and 7
- Mean % Rec (Dirofilaria immitis; [12]): 39%
- Mean Survival (Dirofilaria immitis; [12]): 19
- Mean % Rec (Dirofilaria immitis; group mean, NSG mice, 50 Di L3, 2x (1 mg/kg) at Days 1 and 30, recovery Days 41 to 43): 29%
- Mean % Rec (Dirofilaria immitis; group mean, NSG mice, 50 Di L3, 3x (1 mg/kg) at Days 1, 15, and 30, recovery Days 41 to 43): 17%
- Mean % Rec (Dirofilaria immitis; [13]): 2%
- Mean Survival (Dirofilaria immitis; [13]): 1
- Mean % Rec (Dirofilaria immitis; [14]): 28%
- Mean Survival (Dirofilaria immitis; [14]): 14
- Mean Survival (Dirofilaria immitis; in vivo): 14 and 9
- % Rec (Dirofilaria immitis; [3]): 36% and 28% (2×) and 46% (2×) and 42% and 44%
- Survival (Dirofilaria immitis; [3]): 18 and 14 (2×) and 23 (2×) and 21 and 22
- % Rec (Dirofilaria immitis; [4]): 28% and 26% (3×) and 30% and 42% and 22%
- Survival (Dirofilaria immitis; [4]): 14 and 13 (3×) and 15 and 21 and 11
- % Rec (Dirofilaria immitis; [5]): 28% (2×) and 14% and 22% and 4% and 6% and 20%
- Survival (Dirofilaria immitis; [5]): 14 (2×) and 7 and 11 and 2 and 3 and 10
- % Rec (percent of the original 50 Di recovered) (Dirofilaria immitis; [6]): 2% (3×) and 0% (3×) and 6% (2×)
- Survival (number of Di recovered from the mouse) (Dirofilaria immitis; [6]): 1 (3×) and 0 (3×) and 3 (2×)
- % Rec (percent of the original 50 Di recovered) (Dirofilaria immitis; [7]): 24% and 30% (2×) and 32% and 28% and 26%
- Survival (number of Di recovered from the mouse) (Dirofilaria immitis; [7]): 12 and 15 (2×) and 16 and 14 and 13
- % Rec, Mean [2, 15]: 24%
- Survival, Mean [2, 15]: 12
- % Rec [2, 16]: 18% (2×) and 26% and 30% (2×) and 12% and 36%
- Survival [2, 16]: 9 (2×) and 13 and 15 (2×) and 6 and 18
- % Red ([2]; NSG mice, 50 Di L3 Merial worms, 1 mg/kg on Days 1, 15, and 30, recovery Days 41 to 43): 35%
- % Red ([2]; NSG mice, 50 Di L3 Merial worms, high dose 5 mg/kg on Days 1, 15, and 30, recovery Days 41 to 43): 0%
- % Red ([2]; NSG mice, 50 Di L3 UC strain, High Dose 5 mg/kg on Days 1, 15, and 30, recovery Days 41 and 42): 47%
- Mean % Rec [2, 17]: 22%
- Mean Survival [2, 17]: 11
- Mean % Rec [2, 18]: 51%
- Mean Survival [2, 18]: 25
- Mean % Rec [2, 19]: 19%
- Mean Survival [2, 19]: 10
- % Red ([2]; in vivo): 37%
- % Rec [2, 20]: 14% and 26% and 24% (2×) and 16% and 20% and 32% and 22%
- Survival [2, 20]: 7 and 13 and 12 (2×) and 8 and 10 and 16 and 11
- % Rec [2, 21]: 52% and 68% and 48% (4×) and 56% and 36%
- Survival [2, 21]: 26 and 34 and 24 (4×) and 28 and 18
- % Rec [2, 22]: 20% (3×) and 22% (2×) and 18% and 14%
- Survival [2, 22]: 10 (3×) and 11 (2×) and 9 and 7
- Adult S. stercoralis recovery counts (individual mice) [1, 23]: 0 (4×) and 1
- Adult S. stercoralis recovery counts, mean [1, 23]: 0.2
- L1 S. stercoralis recovery counts (individual mice) [1, 23]: 0
- L1 S. stercoralis recovery counts, mean [1, 23]: 0
- L3 S. stercoralis recovery counts (individual mice) [1, 23]: 5 (2×) and 8 and 0 and 1
- L3 S. stercoralis recovery counts, mean [1, 23]: 4
- Adult S. stercoralis recovery counts (individual mice) [1, 24]: 0
- Adult S. stercoralis recovery counts, mean [1, 24]: 0
- L1 S. stercoralis recovery counts (individual mice) [1, 24]: 0
- L1 S. stercoralis recovery counts, mean [1, 24]: 0
- L3 S. stercoralis recovery counts (individual mice) [1, 24]: 4 and 123 and 228 and 102 and 130 and 39 and 18
- L3 S. stercoralis recovery counts, mean [1, 24]: 92
- Circulating L3 ([1]; NSG mice, 5000 S. stercoralis L3 SC, with or without MPA, 2.5 mg/kg on days 1, 15, and 30): reduced the circulating L3
